Test system: T1, voltage-gated sodium channels (native Nav channels, isoform not identified)
T1 construct: native channels in isolated hippocampal CA1 pyramidal neurons
Assay: whole-cell patch clamp of TTX-sensitive sodium current, steps from -110 to -10 mV
Format: cell-based, Rattus norvegicus

Work on `CC(C)(C)c1ccc(CN2C3=NCCCCN3c3ccccc32)cc1` [DAB-19] yielded an IC50 of 8.3 ± 1.4 µM.

From paper PMC12154456, “Dual Mechanisms of the Diazepine-Benzimidazole Derivative, DAB-19, in Modulating Glutamatergic Neurotransmission” (International Journal of Molecular Sciences, 2025)
